{
  "source": "patent US20180099931A1",
  "about": "(AbbVie S.à.r.l., priority 2016, published 2018)",
  "target": "T1, F508delCFTR (Homo sapiens, UniProt P13569, DEL508-508)",
  "T1 construct": "expressed in transfected cells; host or cells: CFBE41o- human lung-derived epithelial cells (CFBE4lo-F508delCFTR-HRP), doxycycline-inducible",
  "T1 sequence (P13569 with tags, fused parts or gaps DEL508-508)": "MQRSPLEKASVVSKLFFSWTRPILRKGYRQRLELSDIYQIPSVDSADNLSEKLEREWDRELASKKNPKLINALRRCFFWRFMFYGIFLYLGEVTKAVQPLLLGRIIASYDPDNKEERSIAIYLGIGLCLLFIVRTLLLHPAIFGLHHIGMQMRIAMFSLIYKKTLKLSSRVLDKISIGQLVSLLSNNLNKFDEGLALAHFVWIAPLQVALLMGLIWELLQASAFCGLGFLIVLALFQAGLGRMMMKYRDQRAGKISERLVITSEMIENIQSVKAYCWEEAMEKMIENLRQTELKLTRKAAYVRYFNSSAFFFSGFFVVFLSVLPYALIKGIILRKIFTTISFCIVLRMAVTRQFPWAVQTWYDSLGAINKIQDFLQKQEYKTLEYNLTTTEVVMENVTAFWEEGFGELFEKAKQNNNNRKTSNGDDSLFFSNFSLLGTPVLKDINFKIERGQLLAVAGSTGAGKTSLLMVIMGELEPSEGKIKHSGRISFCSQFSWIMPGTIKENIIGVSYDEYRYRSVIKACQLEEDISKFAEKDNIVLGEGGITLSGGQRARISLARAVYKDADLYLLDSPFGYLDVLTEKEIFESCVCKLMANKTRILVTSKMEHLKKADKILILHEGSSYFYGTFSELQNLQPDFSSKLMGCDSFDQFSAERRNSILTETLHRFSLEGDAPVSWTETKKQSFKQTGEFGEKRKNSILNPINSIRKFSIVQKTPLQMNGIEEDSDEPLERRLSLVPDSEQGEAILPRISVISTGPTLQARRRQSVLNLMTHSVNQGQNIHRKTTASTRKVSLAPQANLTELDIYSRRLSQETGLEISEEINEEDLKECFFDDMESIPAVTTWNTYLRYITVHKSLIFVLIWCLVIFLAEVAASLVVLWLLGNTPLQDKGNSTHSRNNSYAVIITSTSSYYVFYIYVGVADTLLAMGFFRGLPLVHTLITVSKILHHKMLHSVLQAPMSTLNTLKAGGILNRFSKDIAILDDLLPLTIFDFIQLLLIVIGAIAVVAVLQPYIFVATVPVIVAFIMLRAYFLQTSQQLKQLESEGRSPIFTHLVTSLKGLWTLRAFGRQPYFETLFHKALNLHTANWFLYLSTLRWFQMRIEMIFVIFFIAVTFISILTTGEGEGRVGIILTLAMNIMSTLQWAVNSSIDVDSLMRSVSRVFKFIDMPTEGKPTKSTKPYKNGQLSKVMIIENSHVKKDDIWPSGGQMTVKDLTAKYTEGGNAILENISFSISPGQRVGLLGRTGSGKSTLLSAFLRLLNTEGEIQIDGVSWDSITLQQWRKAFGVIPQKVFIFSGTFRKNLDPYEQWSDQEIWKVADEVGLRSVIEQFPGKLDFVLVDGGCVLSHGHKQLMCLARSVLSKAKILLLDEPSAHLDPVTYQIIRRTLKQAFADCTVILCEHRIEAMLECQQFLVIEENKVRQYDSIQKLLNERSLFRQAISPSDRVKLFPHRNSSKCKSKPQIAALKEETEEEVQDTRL",
  "test": "Cell Surface Expression-Horse Radish Peroxidase (CSE-HRP) Assay;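 for Maximum % activity (with co-corrector): co-corrector and positive control are both the same reference corrector at 2 µM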;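 for Maximum % activity (without co-corrector): percent of the 2 µM on-plate positive control corrector response above DMSO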",
  "type": "cell-based",
  "conditions": "CSE-HRP; for Maximum % activity (with co-corrector): with co-corrector (2 μM); for Maximum % activity (with co-corrector) / Emax: maximum at any tested concentration, normalized to on-plate positive control; for Emax: without co-corrector, read-out: Maximum % activity (without co-corrector)",
  "key": {"[1]": {"conditions": "test compound without co-corrector, read-out: EC50 (without co-corrector)"}, "[2]": {"conditions": "with co-corrector (2 μM of 3-[(2R,4R)-4-({[1-(2,2-difluoro-1,3-benzodioxol-5-yl)cyclopropyl]carbonyl}amino)-7-methoxy-3,4-dihydro-2H-chromen-2-yl]benzoic acid), read-out: EC50 (with co-corrector)"}},
  "note": "Like-named read-outs stand apart in the source and are kept apart here.",
  "data": [
    {"smiles": "COc1ccc(C(C)(C)C)cc1CN[C@H]1[C@H](C(C)(C)C)[C@@H](C(=O)O)N(C(=O)CC2CCC(F)(F)CC2)[C@H]1c1ccccc1", "note": "[II-188]", "values": [
      {"measurement": "EC50", "setting": "[1]", "result": "1 to 10", "unit": "µM"},
      {"measurement": "EC50", "setting": "[2]", "result": "1 to 10", "unit": "µM"},
      {"measurement": "Maximum % activity (with co-corrector)", "result": "+++ (≥350)"},
      {"measurement": "Emax", "result": "> 200", "unit": "%"}
    ]},
    {"smiles": "COc1ccc(C(C)(C)C)cc1CN[C@H]1[C@H](C(C)(C)C)[C@@H](C(=O)O)N(C(=O)C2(c3ccccn3)CC2)[C@H]1c1ccccc1", "note": "[II-189]", "values": [
      {"measurement": "EC50", "setting": "[1]", "result": "1 to 10", "unit": "µM"},
      {"measurement": "EC50", "setting": "[2]", "result": "1 to 10", "unit": "µM"},
      {"measurement": "Maximum % activity (with co-corrector)", "result": "+++ (≥350)"},
      {"measurement": "Emax", "result": "> 200", "unit": "%"}
    ]},
    {"smiles": "COc1ccc(OC(F)(F)F)cc1CN[C@H]1[C@H](C(C)(C)C)[C@@H](C(=O)O)N(C(=O)C2CCCCC2)[C@H]1c1ccccc1", "note": "[II-190]", "values": [
      {"measurement": "EC50", "setting": "[1]", "result": "1 to 10", "unit": "µM"},
      {"measurement": "EC50", "setting": "[2]", "result": "< 1", "unit": "µM"},
      {"measurement": "Maximum % activity (with co-corrector)", "result": "+++ (≥350)"},
      {"measurement": "Emax", "result": "> 200", "unit": "%"}
    ]},
    {"smiles": "COc1ccc(Cc2ccccc2)cc1CN[C@H]1[C@H](C(C)(C)C)[C@@H](C(=O)O)N(C(=O)C2CCCCC2)[C@H]1c1ccccc1", "note": "[II-191]", "values": [
      {"measurement": "EC50", "setting": "[1]", "result": "1 to 10", "unit": "µM"},
      {"measurement": "EC50", "setting": "[2]", "result": "< 1", "unit": "µM"},
      {"measurement": "Maximum % activity (with co-corrector)", "result": "+++ (≥350)"},
      {"measurement": "Emax", "result": "> 200", "unit": "%"}
    ]},
    {"smiles": "COc1ccc(C2CCCCC2)cc1CN[C@H]1[C@H](C(C)(C)C)[C@@H](C(=O)O)N(C(=O)C2CCCCC2)[C@H]1c1ccccc1", "note": "[II-192]", "values": [
      {"measurement": "EC50", "setting": "[1]", "result": "< 1", "unit": "µM"},
      {"measurement": "EC50", "setting": "[2]", "result": "< 1", "unit": "µM"},
      {"measurement": "Maximum % activity (with co-corrector)", "result": "+++ (≥350)"},
      {"measurement": "Emax", "result": "> 200", "unit": "%"}
    ]},
    {"smiles": "COc1ccc(C2CCCC2)cc1CN[C@H]1[C@H](C(C)(C)C)[C@@H](C(=O)O)N(C(=O)C2CCCCC2)[C@H]1c1ccccc1", "note": "[II-193]", "values": [
      {"measurement": "EC50", "setting": "[1]", "result": "< 1", "unit": "µM"},
      {"measurement": "EC50", "setting": "[2]", "result": "< 1", "unit": "µM"},
      {"measurement": "Maximum % activity (with co-corrector)", "result": "+++ (≥350)"},
      {"measurement": "Emax", "result": "> 200", "unit": "%"}
    ]},
    {"smiles": "COc1ccc(C2CC3CCC2C3)cc1CN[C@H]1[C@H](C(C)(C)C)[C@@H](C(=O)O)N(C(=O)C2CCCCC2)[C@H]1c1ccccc1", "note": "(some centres unmarked) [II-194]", "values": [
      {"measurement": "EC50", "setting": "[1]", "result": "< 1", "unit": "µM"},
      {"measurement": "EC50", "setting": "[2]", "result": "< 1", "unit": "µM"},
      {"measurement": "Maximum % activity (with co-corrector)", "result": "+++ (≥350)"},
      {"measurement": "Emax", "result": "> 200", "unit": "%"}
    ]},
    {"smiles": "COc1ccc(C(C)(C)C)cc1CN[C@H]1[C@H](C(C)(C)C)[C@@H](C(=O)O)N(C(=O)Cc2ccc(O)cc2)[C@H]1c1ccccc1", "note": "[II-195]", "values": [
      {"measurement": "EC50", "setting": "[1]", "result": "1 to 10", "unit": "µM"},
      {"measurement": "EC50", "setting": "[2]", "result": "1 to 10", "unit": "µM"},
      {"measurement": "Maximum % activity (with co-corrector)", "result": "+++ (≥350)"},
      {"measurement": "Emax", "result": "> 200", "unit": "%"}
    ]},
    {"smiles": "COc1ccc(C(C)(C)C)cc1CN[C@H]1[C@H](C(C)(C)C)[C@@H](C(=O)O)N(C(=O)Cc2cccc(O)c2)[C@H]1c1ccccc1", "note": "[II-196]", "values": [
      {"measurement": "EC50", "setting": "[1]", "result": "1 to 10", "unit": "µM"},
      {"measurement": "EC50", "setting": "[2]", "result": "1 to 10", "unit": "µM"},
      {"measurement": "Maximum % activity (with co-corrector)", "result": "+++ (≥350)"},
      {"measurement": "Emax", "result": "> 200", "unit": "%"}
    ]},
    {"smiles": "COc1ccc(C(C)(C)C)cc1CN[C@H]1[C@H](C(C)(C)C)[C@@H](C(=O)O)N(C(=O)c2cc(C)nc(C)c2)[C@H]1c1ccccc1", "note": "[II-197]", "values": [
      {"measurement": "EC50", "setting": "[1]", "result": "1 to 10", "unit": "µM"},
      {"measurement": "EC50", "setting": "[2]", "result": "1 to 10", "unit": "µM"},
      {"measurement": "Maximum % activity (with co-corrector)", "result": "++ (≥150 and <350)"},
      {"measurement": "Emax", "result": "< 100", "unit": "%"}
    ]},
    {"smiles": "COc1ccc(C(C)(C)C)cc1CN[C@H]1[C@H](C(C)(C)C)[C@@H](C(=O)O)N(C(=O)c2cccnc2C)[C@H]1c1ccccc1", "note": "[II-198]", "values": [
      {"measurement": "EC50", "setting": "[1]", "result": "1 to 10", "unit": "µM"},
      {"measurement": "EC50", "setting": "[2]", "result": "1 to 10", "unit": "µM"},
      {"measurement": "Maximum % activity (with co-corrector)", "result": "++ (≥150 and <350)"},
      {"measurement": "Emax", "result": "< 100", "unit": "%"}
    ]},
    {"smiles": "COc1ccc(C(C)(C)C)cc1CN[C@H]1[C@H](C(C)(C)C)[C@@H](C(=O)O)N(C(=O)Cc2cccc(F)c2)[C@H]1c1ccccc1", "note": "[II-199]", "values": [
      {"measurement": "EC50", "setting": "[1]", "result": "1 to 10", "unit": "µM"},
      {"measurement": "EC50", "setting": "[2]", "result": "1 to 10", "unit": "µM"},
      {"measurement": "Maximum % activity (with co-corrector)", "result": "+++ (≥350)"},
      {"measurement": "Emax", "result": "> 200", "unit": "%"}
    ]},
    {"smiles": "COc1ccc(C(C)(C)C)cc1CN[C@H]1[C@H](C(C)(C)C)[C@@H](C(=O)O)N(C(=O)Cc2cc(F)cc(F)c2)[C@H]1c1ccccc1", "note": "[II-200]", "values": [
      {"measurement": "EC50", "setting": "[1]", "result": "1 to 10", "unit": "µM"},
      {"measurement": "EC50", "setting": "[2]", "result": "< 1", "unit": "µM"},
      {"measurement": "Maximum % activity (with co-corrector)", "result": "+++ (≥350)"},
      {"measurement": "Emax", "result": "100 to 200", "unit": "%"}
    ]},
    {"smiles": "COc1ccc(C(C)(C)C)cc1CN[C@H]1[C@H](C(C)(C)C)[C@@H](C(=O)O)N(C(=O)Cc2c(F)cccc2F)[C@H]1c1ccccc1", "note": "[II-201]", "values": [
      {"measurement": "EC50", "setting": "[1]", "result": "< 1", "unit": "µM"},
      {"measurement": "EC50", "setting": "[2]", "result": "< 1", "unit": "µM"},
      {"measurement": "Maximum % activity (with co-corrector)", "result": "+++ (≥350)"},
      {"measurement": "Emax", "result": "> 200", "unit": "%"}
    ]},
    {"smiles": "COc1ccc(C(C)(C)C)cc1CN[C@H]1[C@H](C(C)(C)C)[C@@H](C(=O)O)N(C(=O)Cc2cc(F)ccc2F)[C@H]1c1ccccc1", "note": "[II-202]", "values": [
      {"measurement": "EC50", "setting": "[1]", "result": "< 1", "unit": "µM"},
      {"measurement": "EC50", "setting": "[2]", "result": "< 1", "unit": "µM"},
      {"measurement": "Maximum % activity (with co-corrector)", "result": "+++ (≥350)"},
      {"measurement": "Emax", "result": "> 200", "unit": "%"}
    ]},
    {"smiles": "COc1ccc(C(C)(C)C)cc1CN[C@H]1[C@H](C(C)(C)C)[C@@H](C(=O)O)N(C(=O)Cc2cccc(C)c2)[C@H]1c1ccccc1", "note": "[II-203]", "values": [
      {"measurement": "EC50", "setting": "[1]", "result": "1 to 10", "unit": "µM"},
      {"measurement": "EC50", "setting": "[2]", "result": "< 1", "unit": "µM"},
      {"measurement": "Maximum % activity (with co-corrector)", "result": "+++ (≥350)"},
      {"measurement": "Emax", "result": "100 to 200", "unit": "%"}
    ]},
    {"smiles": "COc1ccc(C(C)(C)C)cc1CN[C@H]1[C@H](C(C)(C)C)[C@@H](C(=O)O)N(C(=O)Cc2ccc(C)cc2)[C@H]1c1ccccc1", "note": "[II-204]", "values": [
      {"measurement": "EC50", "setting": "[1]", "result": "< 1", "unit": "µM"},
      {"measurement": "EC50", "setting": "[2]", "result": "< 1", "unit": "µM"},
      {"measurement": "Maximum % activity (with co-corrector)", "result": "+++ (≥350)"},
      {"measurement": "Emax", "result": "100 to 200", "unit": "%"}
    ]}
  ]
}
